From ChEMBL document CHEMBL6127128, “Discovery of the First-in-Class Dual-Target ROCK/HDAC Inhibitor with Potent Antitumor Efficacy in Vivo That Trigger Antitumor Immunity” (J Med Chem, 2024) come the findings set out here.

The structures appear in SMILES notation. ≈ marks a conversion by molar mass, not a printed value. Calls of active or inactive are those of the source. No cut-off for these calls is given here.

The nature of data set [1]: Tmax in Balb/c mouse at 50 mg/kg, po measured for 24 hrs by LC-MS/MS analysis. It counts as ADME, organism-based. The following applies: in vivo.
In a further data set the test system is MDA-MB-231. Nature of the data set: Induction of immunogenic cell death-associated DAMP release in human MDA-MB-231 cells assessed as increase in CRT expression level by measuring increase in green fluorescence intensity at 1 to 10 uM incubated for 24 hrs by DAPI staining based immunofluorescence analysis. It counts as functional. The following applies: dose 1-10 µM.

Another data set deals with T1, Histone deacetylase 11 (Homo sapiens, UniProt Q96DB2).
T1 sequence (Q96DB2 whole entry): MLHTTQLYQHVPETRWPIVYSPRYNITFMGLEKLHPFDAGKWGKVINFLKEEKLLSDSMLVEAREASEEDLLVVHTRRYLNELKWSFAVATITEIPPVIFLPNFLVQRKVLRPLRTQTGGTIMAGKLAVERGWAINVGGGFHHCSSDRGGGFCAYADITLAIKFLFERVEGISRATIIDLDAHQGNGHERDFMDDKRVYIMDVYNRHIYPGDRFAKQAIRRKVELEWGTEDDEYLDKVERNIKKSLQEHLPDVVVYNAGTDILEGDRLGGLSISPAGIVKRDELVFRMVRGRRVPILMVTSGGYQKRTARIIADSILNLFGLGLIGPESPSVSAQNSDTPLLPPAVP
As to the kind of experiment: Inhibition of HDAC11 (unknown origin) using Ac-Leu-Gly-Lys(Ac)-AMC as substrate preincubated for 5 mins followed by substrate addition for 30 mins and measured following trypsin addition for 30 mins by fluorescence based analysis.

Data set [2] can be described thus: Half-life in Balb/c mouse at 1 mg/kg, iv measured for 24 hrs by LC-MS/MS analysis. It counts as ADME, organism-based. The following applies: in vivo.
A short description of data set [3]: Toxicity against Balb/c mouse implanted with mouse 4T1 cells assessed as effect on morphological changes in spleen at 25 to 50 mg/kg, po administered daily for 15 days by Hematoxylin-Eosin staining based analysis. Format: organism-based. To be noted: in vivo, 360 h, dose 25-50 mg/kg, time 15 day.
The next data set addresses Histone deacetylase 1 (Homo sapiens, UniProt Q13547). As to the kind of experiment: Inhibition of HDAC1 (unknown origin) using Ac-Leu-Gly-Lys(Ac)-AMC as substrate preincubated for 5 mins followed by substrate addition for 30 mins and measured following trypsin addition for 30 mins by fluorescence based analysis.
The target of data set [4] is T2, Polyamine deacetylase HDAC10 (Homo sapiens, UniProt Q969S8).
T2 sequence (Q969S8 whole entry): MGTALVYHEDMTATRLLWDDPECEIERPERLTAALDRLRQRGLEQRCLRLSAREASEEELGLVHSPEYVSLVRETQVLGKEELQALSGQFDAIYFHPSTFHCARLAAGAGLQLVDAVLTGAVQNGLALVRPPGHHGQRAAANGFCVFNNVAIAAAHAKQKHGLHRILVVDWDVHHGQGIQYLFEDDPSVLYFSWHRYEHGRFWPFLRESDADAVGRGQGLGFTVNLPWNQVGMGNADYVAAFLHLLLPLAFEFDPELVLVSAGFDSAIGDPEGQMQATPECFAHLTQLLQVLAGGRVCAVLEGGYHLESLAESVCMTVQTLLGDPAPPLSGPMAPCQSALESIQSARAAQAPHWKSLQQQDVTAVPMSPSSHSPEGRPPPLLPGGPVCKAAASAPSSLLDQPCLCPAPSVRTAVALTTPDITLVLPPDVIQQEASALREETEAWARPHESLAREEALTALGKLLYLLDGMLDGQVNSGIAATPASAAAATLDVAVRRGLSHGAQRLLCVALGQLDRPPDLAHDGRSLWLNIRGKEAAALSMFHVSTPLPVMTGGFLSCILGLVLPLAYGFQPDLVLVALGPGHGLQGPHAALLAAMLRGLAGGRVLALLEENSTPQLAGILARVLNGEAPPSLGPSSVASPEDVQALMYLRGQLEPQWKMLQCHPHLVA
Nature of the data set: Inhibition of HDAC10 (unknown origin) using Ac-Arg-His-Lys(Ac)-Lys(Ac)-AMC as substrate preincubated for 5 mins followed by substrate addition for 30 mins and measured following trypsin addition for 30 mins by fluorescence based analysis.

In data set [5] the test system is 4T1. As to the kind of experiment: Antitumor immunity against mouse 4T1 cells implanted in Balb/c mouse assessed as increase in CD86+ dendritic cells in tumor tissue at 25 mg/kg, po administered daily for 15 days by immunohistochemistry. The following applies: time 15.0 day. It counts as functional, organism-based.
Data set [6] in a line: Aqueous solubility of the compound in aqueous buffer at pH 7.4. Format: physicochemical.
The target of another data set is Histone deacetylase 3 (Homo sapiens, UniProt O15379). Nature of the data set: Inhibition of HDAC3 (unknown origin) using Ac-Leu-Gly-Lys(Ac)-AMC as substrate preincubated for 5 mins followed by substrate addition for 30 mins and measured following trypsin addition for 30 mins by fluorescence based analysis.
Data set [7] concerns 4T1. Nature of the data set: Antitumor immunity against mouse 4T1 cells implanted in Balb/c mouse assessed as increase in CD40+ dendritic cells in tumor tissue at 50 mg/kg, po administered daily for 15 days by immunohistochemistry relative to SAHA. It counts as functional. To be noted: time 15 day.
For another data set, the target named is Histone deacetylase 9 (Homo sapiens, UniProt Q9UKV0). As to the kind of experiment: Inhibition of HDAC9 (unknown origin) using Ac-Leu-Gly-Lys(tfa)-AMC as substrate preincubated for 5 mins followed by substrate addition for 30 mins and measured following trypsin addition for 30 mins by fluorescence based analysis.
Data set [8] has as its target Rho-associated protein kinase 2 (Homo sapiens, UniProt O75116). Nature of the data set: Inhibition of N-terminal GST-tagged human recombinant wild type ROCK2 (1 to 553 residues) expressed in baculovirus-infected Sf21 cells by HTRF KinEASE assay. (In TR-FRET formats the signal depends on donor and acceptor labels being close together.)
The nature of data set [9]: Toxicity against Balb/c mouse implanted with mouse 4T1 cells assessed as effect on morphological changes in kidneys at 25 to 50 mg/kg, po administered daily for 15 days by Hematoxylin-Eosin staining based analysis. It counts as organism-based. The following applies: in vivo, 360 h, dose 25-50 mg/kg, time 15 day.
A further data set deals with Histone deacetylase 5 (Homo sapiens, UniProt Q9UQL6). As to the kind of experiment: Inhibition of HDAC5 (unknown origin) using Ac-Leu-Gly-Lys(tfa)-AMC as substrate preincubated for 5 mins followed by substrate addition for 30 mins and measured following trypsin addition for 30 mins by fluorescence based analysis.
The next data set relates to Mus musculus. Nature of the data set: Induction of immunogenic cell death-associated DAMP release in tumor of Balb/c mouse implanted with mouse 4T1 cells assessed as increase in CRT expression at 25 to 50 mg/kg, po administered daily for 15 days by immunofluorescence analysis. It counts as functional, organism-based. To be noted: dose 25-50 mg/kg, time 15.0 day.
A further data set concerns the target Histone deacetylase 4 (Homo sapiens, UniProt P56524). Nature of the data set: Inhibition of HDAC4 (unknown origin) using Ac-Leu-Gly-Lys(tfa)-AMC as substrate preincubated for 5 mins followed by substrate addition for 30 mins and measured following trypsin addition for 30 mins by fluorescence based analysis.
Data set [10] has as its system 4T1. As to the kind of experiment: Antitumor activity against mouse 4T1 cells implanted in Balb/c mouse assessed as inhibition of tumor growth rate at 25 mg/kg, po administered daily for 15 days. Format: functional. To be noted: 4T1, 360 h, time 15 day, read-out: TGI.
Data set [11] deals with Rho-associated protein kinase 1 (Homo sapiens, UniProt Q13464). As to the kind of experiment: Inhibition of N-terminal GST-tagged human recombinant ROCK1 (17 to 535 residues) expressed in baculovirus-infected Sf9 cells by HTRF KinEASE assay.

Chain of Rho-associated protein kinase 2 (O75116 whole entry, the tested form may be a part): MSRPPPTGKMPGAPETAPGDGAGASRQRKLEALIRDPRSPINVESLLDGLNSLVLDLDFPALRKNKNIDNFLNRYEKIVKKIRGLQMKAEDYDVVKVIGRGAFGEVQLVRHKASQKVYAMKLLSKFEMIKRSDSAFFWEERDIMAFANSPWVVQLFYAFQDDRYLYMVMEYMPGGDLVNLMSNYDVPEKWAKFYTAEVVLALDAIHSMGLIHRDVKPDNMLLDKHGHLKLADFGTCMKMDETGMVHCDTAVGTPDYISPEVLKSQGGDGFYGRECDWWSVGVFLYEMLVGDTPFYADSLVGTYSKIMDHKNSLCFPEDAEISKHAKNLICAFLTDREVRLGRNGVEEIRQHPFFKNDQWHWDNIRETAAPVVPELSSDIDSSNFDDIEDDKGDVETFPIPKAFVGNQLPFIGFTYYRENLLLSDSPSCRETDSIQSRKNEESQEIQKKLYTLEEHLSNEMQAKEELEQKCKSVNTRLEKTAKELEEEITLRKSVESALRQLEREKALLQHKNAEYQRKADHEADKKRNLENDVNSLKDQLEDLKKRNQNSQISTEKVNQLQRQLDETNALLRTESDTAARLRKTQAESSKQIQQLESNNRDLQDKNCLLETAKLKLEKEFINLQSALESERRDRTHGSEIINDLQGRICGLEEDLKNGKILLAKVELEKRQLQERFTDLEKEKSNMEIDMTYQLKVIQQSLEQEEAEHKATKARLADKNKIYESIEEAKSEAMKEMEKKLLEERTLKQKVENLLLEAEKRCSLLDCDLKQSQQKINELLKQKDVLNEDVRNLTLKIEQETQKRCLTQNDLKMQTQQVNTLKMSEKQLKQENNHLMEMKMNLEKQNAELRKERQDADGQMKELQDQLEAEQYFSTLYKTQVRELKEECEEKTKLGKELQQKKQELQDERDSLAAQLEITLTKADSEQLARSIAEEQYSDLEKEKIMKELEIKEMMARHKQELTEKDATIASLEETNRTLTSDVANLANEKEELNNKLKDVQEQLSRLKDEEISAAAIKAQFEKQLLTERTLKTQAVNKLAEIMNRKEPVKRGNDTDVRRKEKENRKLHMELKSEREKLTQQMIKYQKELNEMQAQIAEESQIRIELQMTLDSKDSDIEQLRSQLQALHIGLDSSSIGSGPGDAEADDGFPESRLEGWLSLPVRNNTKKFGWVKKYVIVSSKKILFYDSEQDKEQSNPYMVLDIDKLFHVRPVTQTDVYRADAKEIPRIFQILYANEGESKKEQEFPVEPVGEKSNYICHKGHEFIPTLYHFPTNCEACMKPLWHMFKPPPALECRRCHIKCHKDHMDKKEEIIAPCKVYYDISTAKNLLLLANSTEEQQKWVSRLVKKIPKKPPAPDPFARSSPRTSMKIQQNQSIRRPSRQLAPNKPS
Chain of Histone deacetylase 9 (Q9UKV0 whole entry, the tested form may be a part): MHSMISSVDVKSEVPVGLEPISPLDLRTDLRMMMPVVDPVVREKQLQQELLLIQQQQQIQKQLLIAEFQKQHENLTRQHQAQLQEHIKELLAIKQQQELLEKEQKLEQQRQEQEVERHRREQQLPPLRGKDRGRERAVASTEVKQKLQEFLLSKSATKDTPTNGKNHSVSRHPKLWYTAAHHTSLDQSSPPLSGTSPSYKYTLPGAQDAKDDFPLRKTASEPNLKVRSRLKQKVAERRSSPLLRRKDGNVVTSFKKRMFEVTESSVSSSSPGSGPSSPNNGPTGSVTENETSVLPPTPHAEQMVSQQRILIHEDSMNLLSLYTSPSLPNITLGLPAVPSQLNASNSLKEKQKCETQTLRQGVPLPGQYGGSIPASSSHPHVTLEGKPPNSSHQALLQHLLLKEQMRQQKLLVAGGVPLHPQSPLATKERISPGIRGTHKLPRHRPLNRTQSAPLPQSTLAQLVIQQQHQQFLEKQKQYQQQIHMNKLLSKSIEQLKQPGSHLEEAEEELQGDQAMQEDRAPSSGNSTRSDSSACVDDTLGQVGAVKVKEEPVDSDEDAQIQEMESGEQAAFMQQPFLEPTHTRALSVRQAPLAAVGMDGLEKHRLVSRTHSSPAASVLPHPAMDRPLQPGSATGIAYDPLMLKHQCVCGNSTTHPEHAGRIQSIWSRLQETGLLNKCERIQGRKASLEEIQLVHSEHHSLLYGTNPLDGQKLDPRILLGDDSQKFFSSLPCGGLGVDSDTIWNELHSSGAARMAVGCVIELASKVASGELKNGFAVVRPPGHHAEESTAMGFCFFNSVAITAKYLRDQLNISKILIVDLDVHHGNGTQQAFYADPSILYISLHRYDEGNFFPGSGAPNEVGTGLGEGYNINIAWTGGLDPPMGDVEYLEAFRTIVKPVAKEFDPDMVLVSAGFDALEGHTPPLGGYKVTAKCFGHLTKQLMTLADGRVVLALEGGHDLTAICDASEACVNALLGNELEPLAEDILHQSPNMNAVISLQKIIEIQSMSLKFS
Chain of Histone deacetylase 1 (Q13547 whole entry): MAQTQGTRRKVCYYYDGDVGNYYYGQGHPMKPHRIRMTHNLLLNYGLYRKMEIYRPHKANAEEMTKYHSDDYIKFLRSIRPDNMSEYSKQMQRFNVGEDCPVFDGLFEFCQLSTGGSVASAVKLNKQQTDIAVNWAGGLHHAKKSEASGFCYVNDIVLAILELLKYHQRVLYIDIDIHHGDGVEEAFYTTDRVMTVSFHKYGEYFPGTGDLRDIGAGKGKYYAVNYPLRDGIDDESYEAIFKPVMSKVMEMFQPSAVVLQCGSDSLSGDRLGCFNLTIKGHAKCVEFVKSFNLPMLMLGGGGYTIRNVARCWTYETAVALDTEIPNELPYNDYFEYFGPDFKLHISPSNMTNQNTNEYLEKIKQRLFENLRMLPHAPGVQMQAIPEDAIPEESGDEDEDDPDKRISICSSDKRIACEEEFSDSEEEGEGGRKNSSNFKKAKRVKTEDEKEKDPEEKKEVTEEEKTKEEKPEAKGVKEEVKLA
Chain of Histone deacetylase 4 (P56524 whole entry): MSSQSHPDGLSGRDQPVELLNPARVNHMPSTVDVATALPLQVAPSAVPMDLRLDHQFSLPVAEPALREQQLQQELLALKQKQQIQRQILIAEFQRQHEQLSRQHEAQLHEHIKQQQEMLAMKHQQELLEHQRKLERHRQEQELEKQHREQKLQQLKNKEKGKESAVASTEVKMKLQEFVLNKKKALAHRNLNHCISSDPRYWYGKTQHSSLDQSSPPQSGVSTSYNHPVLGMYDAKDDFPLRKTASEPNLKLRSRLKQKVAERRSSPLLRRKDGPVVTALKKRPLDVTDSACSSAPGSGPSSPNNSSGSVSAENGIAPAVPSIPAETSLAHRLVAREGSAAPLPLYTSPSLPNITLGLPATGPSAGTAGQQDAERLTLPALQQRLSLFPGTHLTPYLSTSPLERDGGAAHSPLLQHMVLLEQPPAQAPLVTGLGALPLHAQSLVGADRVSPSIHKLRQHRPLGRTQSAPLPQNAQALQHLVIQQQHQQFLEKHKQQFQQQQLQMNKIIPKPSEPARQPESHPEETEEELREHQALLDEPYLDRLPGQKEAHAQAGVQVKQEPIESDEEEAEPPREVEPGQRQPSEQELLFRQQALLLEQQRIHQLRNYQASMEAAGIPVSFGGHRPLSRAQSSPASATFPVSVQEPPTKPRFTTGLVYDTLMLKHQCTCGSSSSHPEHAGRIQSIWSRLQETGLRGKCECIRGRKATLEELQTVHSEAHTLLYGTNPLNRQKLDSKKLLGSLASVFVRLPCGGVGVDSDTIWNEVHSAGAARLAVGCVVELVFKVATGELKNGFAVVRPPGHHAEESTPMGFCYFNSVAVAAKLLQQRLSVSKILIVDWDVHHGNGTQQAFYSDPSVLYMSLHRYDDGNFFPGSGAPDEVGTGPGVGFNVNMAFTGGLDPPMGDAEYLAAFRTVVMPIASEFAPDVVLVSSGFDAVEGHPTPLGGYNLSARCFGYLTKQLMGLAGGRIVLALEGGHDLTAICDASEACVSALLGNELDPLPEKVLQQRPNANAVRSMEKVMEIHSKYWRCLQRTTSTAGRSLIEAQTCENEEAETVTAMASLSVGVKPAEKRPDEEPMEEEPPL
Chain of Histone deacetylase 5 (Q9UQL6 whole entry): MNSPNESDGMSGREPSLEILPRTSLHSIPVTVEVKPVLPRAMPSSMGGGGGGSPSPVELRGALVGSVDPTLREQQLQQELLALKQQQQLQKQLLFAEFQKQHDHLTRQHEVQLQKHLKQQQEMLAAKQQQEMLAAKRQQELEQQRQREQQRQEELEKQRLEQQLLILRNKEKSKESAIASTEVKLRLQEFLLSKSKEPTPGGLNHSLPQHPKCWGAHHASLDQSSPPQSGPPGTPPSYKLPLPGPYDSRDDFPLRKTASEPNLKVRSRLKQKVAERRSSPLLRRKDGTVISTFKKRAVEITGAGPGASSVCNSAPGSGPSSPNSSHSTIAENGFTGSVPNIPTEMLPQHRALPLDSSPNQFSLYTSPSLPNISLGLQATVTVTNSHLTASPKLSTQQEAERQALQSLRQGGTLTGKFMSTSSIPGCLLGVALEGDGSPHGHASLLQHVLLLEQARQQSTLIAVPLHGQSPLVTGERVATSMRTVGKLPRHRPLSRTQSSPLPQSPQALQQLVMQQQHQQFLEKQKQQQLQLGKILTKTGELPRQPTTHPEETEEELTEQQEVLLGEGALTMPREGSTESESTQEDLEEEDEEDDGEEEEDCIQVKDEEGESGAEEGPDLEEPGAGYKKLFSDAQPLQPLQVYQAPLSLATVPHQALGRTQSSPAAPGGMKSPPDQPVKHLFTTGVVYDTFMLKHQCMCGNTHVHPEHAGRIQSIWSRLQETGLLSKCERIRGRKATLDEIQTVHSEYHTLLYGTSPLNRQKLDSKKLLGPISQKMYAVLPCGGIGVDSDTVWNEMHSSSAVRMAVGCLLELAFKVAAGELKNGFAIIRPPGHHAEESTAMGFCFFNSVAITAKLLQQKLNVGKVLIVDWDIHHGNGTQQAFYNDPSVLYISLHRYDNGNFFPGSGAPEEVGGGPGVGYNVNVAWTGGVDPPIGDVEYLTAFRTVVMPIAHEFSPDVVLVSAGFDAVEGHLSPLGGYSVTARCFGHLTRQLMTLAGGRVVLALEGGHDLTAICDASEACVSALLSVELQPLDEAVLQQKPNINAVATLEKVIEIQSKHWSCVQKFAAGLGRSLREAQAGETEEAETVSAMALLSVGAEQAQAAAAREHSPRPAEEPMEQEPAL

As for `O=C(CCCCCCNC(=O)c1cc2cc(-c3cn[nH]c3)ccc2s1)NO`, the Tmax (as a rule, the time from dosing to the highest level) in data set [1] turned out to be 1.8 min. In addition, the outcome in the data set with MDA-MB-231, with 4T1 [5] and in the data set on Mus musculus was Active. The IC50 – broadly, the concentration at which inhibition is half-maximal – is > 10000 nM at Histone deacetylase 11; 9.09 nM against Histone deacetylase 1; > 10000 nM in data set [4]; 6.26 nM at Histone deacetylase 3; > 10000 nM at Histone deacetylase 9; 255 nM in data set [8]. In addition, the IC50 was > 10000 nM on Histone deacetylase 5, > 10000 nM against Histone deacetylase 4 and 58.2 nM in data set [11]. Also, the half-life (as a rule, how long it takes for the measured level to halve) in data set [2] is 22.3 h. Further, the Activity entry in data set [3] and in data set [9] was “Non-Toxic” in each case. The amount in solution in [6] (solubility) came to 0.695 µg/mL (≈ 1.8 µM). Also, the “fold change (FC)” value with 4T1 [7] is reported as 2.3. Also, the inhibition in vivo at 25 mg/kg with 4T1 [10] is 45%.
